Measurements as given in patent publication US20170009228A1, “BIOLOGICAL MATERIALS AND THERAPEUTIC USES THEREOF” (IMPERIAL INNOVATIONS LIMITED, priority 2014, published 2017).

Experiments:
TLR2 and TLR4 null mice = assay: Intra-articular injection of FBG in TLR2 and TLR4 null mice; format: in vivo; conditions: 1 μg FBG, 3 days
Protocol: Representative sections of the knee joint of TLR2 (a) and TLR4 (b) null mice 3 days after intra-articular injection of 1 μg FBG. Sections are stained with hemotoxylin and eosin. Magnification ×10 (n=5 mice per genotype). (c) Quantification of joint inflammation, bone erosion, cartilage surface erosion and chondrocyte death in the knee joints of TLR2 (white bars) and TLR4 (black bars) null mice 3 days after intra-articular injection of 1 μg FBG. Data represent the mean+/−SD (n=5 per genotype).
Homozygous TLR2 and TLR4 deficient mice on a C57BL/6 background (an inbred strain of mice with a black coat) were obtained from B&K Universal (Hull, UK) Hoshino (1999) and Takeuchi (1999). Homozygous MyD88 deficient mice on a C57BL/6 background were provided by the Sanger Institute (Cambridge, UK). Age matched congenic inbred wild type C57B/L6 mice were obtained from Charles River (Margate, UK). For isolation of mouse embryo fibroblasts one female aged 8-10 weeks was mated with two males aged 8-10 weeks. For isolation of bone marrow derived macrophages mice were female and between 10-12 weeks of age at the time of experimentation.
Coronal tissue sections (4 μm) were cut at 7 depths throughout the joint; 80 μm apart and stained with hematoxylin and eosin or Safranin-O to assess joint pathology. Histopathologic changes were scored using the following parameters as described in Van Lent (2006). […]

TLR2 = assay: Cytokine synthesis in embryonic fibroblasts or macrophages from TLR2 deficient mice; format: cell-based
Protocol: (§1) MEFs express high levels of mRNA of all 9 murine TLRs and are specifically and highly responsive to TLR ligand activation. […] MEFs were isolated from d13 embryos harvested from age-matched, pregnant female wild type, TLR2, TLR4 and null mice (as described in Todaro (1963)). Fibroblasts were cultured at 2×10^4 cells/well in DMEM containing 10% (v/v) FBS and 100 U/ml penicillin/streptomycin in 96-well tissue culture plates for 24 hours before stimulation.
BMDMs were derived by aspirating the femurs of age matched female wild type, TLR2 and TLR4 null mice as described in Butler (1999)) and culturing the cells for 7 days in DMEM, 20% (v/v) FBS, 10 ml/L (v/v) antibiotic-antimycotic solution PSA, 50 μM β-Mercaptoethanol and 10 ng/ml M-CSF. Macrophages were then cultured at 1×10^5 cells/well in DMEM, 20% (v/v) FBS, 10 ml/L (v/v) antibiotic-antimycotic solution PSA, 50 μM β-Mercaptoethanol in 96-well tissue culture plates for 24 hours before stimulation.
(§2) Cells were incubated for 24 hours at 37° C. with the indicated doses of tenascin-C and recombinant tenascin-C fragments (1.0 μM-1.0 nM). Cells were also stimulated where indicated with LPS (1 ng/ml for human macrophages, 10 ng/ml for human fibroblasts, RA membrane cells and HEKs, 100 ng/ml for MEFS and BMDMs and 10 ng/ml for HEKS), PAM3 (10 ng/ml for human macrophages, human fibroblasts, and HEKs, 100 ng/ml for MEFs and BMDMs), murine IL-1 (5 ng/ml for MEFS) and murine TNF-α (100 ng/ml for MEFS). Unless specifically stated otherwise rough LPS was used for in vitro studies.
(§3) Supernatants were subsequently examined for the presence of the cytokines TNF-α, IL-6, and IL-8 by enzyme-linked immunosorbent assay (ELISA) according to the manufacturer's instructions. Absorbance was read on a spectrophotometric ELISA plate reader (Labsystems Multiscan Biochromic, Vantaa, Finland) and analyzed using the Ascent software program (Thermo Labsystems, Altrincham, UK).

MyD88 [1] = assay: FBG stimulation of RA synovial fibroblasts infected with adenovirus expressing dominant negative MyD88; format: cell-based, human; conditions: 1 μM FBG
Excerpt: Recombinant, replication-deficient adenoviral vectors encoding wild type MyD88 (AdMyD88wt), dominant-negative forms of MyD88 (AdMyD88dn) and the GFP control (AdGFP) were constructed in-house. A description of the synthesis of these viruses is in Andreakos (2004). All viruses used in this study are E1/E3 deleted, belong to the Ad5 serotype. Viruses were propagated in 293 human embryonic kidney cells, purified by ultracentrifugation through two cesium chloride gradients, and viral titers determined by plaque assay as previously described (Sacre (2007)).
For adenoviral gene transfer experiments, human RA synovial fibroblasts were incubated with adenoviral vectors at a multiplicity of infection of 100, washed after 2 hours, cultured in complete medium for 24 hours, then stimulated for 24 hours, after which time supernatants were collected.
as §3

MyD88 [2] = assay: Cytokine synthesis in embryonic fibroblasts from MyD88 deficient mice; format: cell-based
Protocol: as §1, §2, §3

RA synovial fibroblasts = assay: Cytokine synthesis in RA synovial fibroblasts stimulated with tenascin-C, FBG or LPS; format: cell-based, human; conditions: RA synovial fibroblasts, 24 h
Excerpt: RA membrane cells (representing a mixed population of all synovial cell types) were isolated from synovial membranes obtained from patients undergoing joint replacement surgery as previously described (Brennan (1989)). RA synovial fibroblasts were isolated from the mixed population of RA membrane cells as previously described (Brennan (1989)). The study was approved by the local Trust ethics committee (Riverside NHS Research Committee), and waste tissue (synovium after joint replacement surgery) was obtained only after receiving signed informed consent from the patient and anonymyzing the tissue to protect patient identity.
Immediately after isolation, RA membrane cells and macrophages were cultured at 1×10^5 cells/well in RPMI 1640 containing 10% (v/v) FBS and 100 U/ml (Units/ml) penicillin/streptomycin in 96-well tissue culture plates for 24 hours before stimulation. Synovial fibroblasts (used only at either passage number 2 or 3) were cultured at 1×10^4 cells/well in DMEM containing 10% (v/v) FBS and 100 U/ml penicillin/streptomycin in 96-well tissue culture plates for 24 hours before stimulation.
as §2, §3

Question: What does the source list for “FBG: recombinant fibrinogen-like globe, 227 amino acid globular domain at the C terminal of tenascin-C”?
Answer: joint inflammation (TLR2 and TLR4 null mice; TLR2 null mice): able to induce joint inflammation; joint inflammation (TLR2 and TLR4 null mice; TLR4 null mice): not in TLR4 null mice; cytokine synthesis (TLR2): unaffected; FBG induction of IL-6 (MyD88 [1]): abolished; cytokine synthesis (MyD88 [2]; MEFs from MyD88 deficient mice, 24 h): does not stimulate cytokine synthesis; responsiveness after re-transfection of wild type MyD88 (MyD88 [2]; MyD88 deficient MEFs, data not shown): restored the responsiveness; IL-6 synthesis (RA synovial fibroblasts): to an equal extent to full-length tenascin-C; IL-8 synthesis (RA synovial fibroblasts): did not induce
